Results reported in patent US10752587B2, “Homobispiperidinyl derivatives as liver X receptor beta agonists, compositions and their use” (Merck Sharp & Dohme Corp., priority 2015, dated 2020).
Where two headings read alike, the source gives them in different places.

Assays:
[1] = target: T1, glutathione-S-transferase (GST) tagged LXRbeta LBD (ligand binding domain) (Homo sapiens, UniProt P55055); assay: LanthaScreen TR-FRET Liver X Receptor Coactivator Assay, co-activator recruitment to LXRbeta LBD; assay type: biochemical; conditions: for Emax: read-out: LXR beta Activity @ max dose (%); for EC50: potency (Inflection Point, IP), co-activator recruitment to LXRbeta LBD, in relation to T0901317
T1 construct: purchased Invitrogen pv4658.pps
T1 sequence (P55055 222-460 limits assumed): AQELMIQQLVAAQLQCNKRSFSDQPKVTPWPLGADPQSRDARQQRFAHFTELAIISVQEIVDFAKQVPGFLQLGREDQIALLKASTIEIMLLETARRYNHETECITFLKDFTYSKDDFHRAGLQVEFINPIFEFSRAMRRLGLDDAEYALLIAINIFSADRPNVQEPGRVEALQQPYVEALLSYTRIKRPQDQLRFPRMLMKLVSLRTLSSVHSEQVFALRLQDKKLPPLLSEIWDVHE
Summary of the method: (§1)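 Efficacy (Emax) and inflection-point potency were scaled to reference agonist T0901317, acting on both LXR subtypes. Ligand-driven coactivator peptide recruitment was detected by TR-FRET after room-temperature incubation with terbium anti-GST antibody.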

[2] = target: T2, glutathione-S-transferase (GST) tagged LXRalpha LBD (ligand binding domain) (Homo sapiens, UniProt Q13133); assay: LanthaScreen TR-FRET Liver X Receptor Coactivator Assay, co-activator recruitment to LXRalpha LBD; assay type: biochemical; conditions: for Emax: read-out: LXR alpha Activity @ max dose (%); for LXR alpha IP (nM) / EC50: potency (Inflection Point, IP), co-activator recruitment to LXRalpha LBD, in relation to T0901317
T2 construct: purchased Invitrogen pv4655
T2 sequence (Q13133 209-447 limits assumed): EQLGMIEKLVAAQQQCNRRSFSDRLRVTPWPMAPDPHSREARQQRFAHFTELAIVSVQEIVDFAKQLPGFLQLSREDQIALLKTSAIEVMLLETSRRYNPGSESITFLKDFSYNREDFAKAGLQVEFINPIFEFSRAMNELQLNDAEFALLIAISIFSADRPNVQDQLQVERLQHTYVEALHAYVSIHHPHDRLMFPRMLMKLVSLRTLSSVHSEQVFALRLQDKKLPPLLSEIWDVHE
Summary of the method: as §1

[3] = efficacy at max dose, in relation to reference dual agonist T0901317

Compound | Emax [1, 3] [%] | EC50 ([1]; read-out: LXR beta IP) [nM] | Emax [2, 3] [%] | LXR alpha IP (nM) [2] | EC50 ([2]; read-out: LXR alpha IP) [nM] | EC50 ([1]; LXR beta IP (nM)) [nM] | Emax [1] [%] | EC50 ([2]; LXR alpha IP (nM)) [nM] | Emax [2] [%]
Cc1cc(N2CCC(CC3(C)CCN(C(=O)[C@](O)(c4cccc(Cl)c4)C(F)(F)F)CC3)CC2)ccc1C(=O)N(C)C [Example 2-76, 4-[4-({1-[(2R)-2-(3-chloro-phenyl)-3,3,3-trifluoro-2-hydroxy-propanoyl]-4-methylpiperidin-4-yl}methyl)piperidin-1-yl]-N,N,2-trimethyl-benzamide] | 46 | 14 | 4 | NO IP | – | – | – | – | –
CN(C)C(=O)c1ccc(N2CCC(CC3CCN(C(=O)C(O)(c4ccccc4)C4CCC4)CC3)CC2)nc1Cl (centres unmarked) [Example 7-97, 2-chloro-6-[4-({1-[cyclobutyl(hydroxy)phenylacetyl]piperidin-4-yl}methyl)piperidin-1-yl]-N,N-dimethylpyridine-3-carboxamide] | – | – | – | – | – | 40 | 98 | 1180 | 38
CN(C)C(=O)c1ccc(N2CCC(CC3CCN(C(=O)[C@](O)(c4ccccc4F)C(F)(F)F)CC3)CC2)cc1Cl [Example 2-85, 2-chloro-N,N-dimethyl-4-[4-({1-[(2R)-3,3,3-trifluoro-2-(2-fluorophenyl)-2-hydroxy-propanoyl]piperidin-4-yl}methyl)piperidin-1-yl]benzamide] | 68 | 17 | 21 | – | 554 | – | – | – | –
CN(C)C(=O)c1ccc(N2[C@@H]3CC[C@H]2CN(CC2CCN(C(=O)[C@](O)(c4ccccc4)C(F)(F)F)CC2)C3)cc1Cl [Example 6-3, 2-chloro-N,N-dimethyl-4-[(1R,5S)-3-({1-[(2R)-3,3,3-trifluoro-2-hydroxy-2-phenylpropanoyl]piperidin-4-yl}methyl)-3,8-diazabicyclo[3.2.1]oct-8-yl]benzamide] | 37 | 2550 | 18 | NO IP | – | – | – | – | –
CN(C)C(=O)c1ccc(N2CCN(CC3CCN(C(=O)[C@](O)(c4ccccc4)C(F)(F)F)CC3)CC2)cc1Cl [Example 6-1, 2-chloro-N,N-dimethyl-4-[4-({1-[(2R)-3,3,3-trifluoro-2-hydroxy-2-phenylpropanoyl]piperidin-4-yl}methyl)piperazin-1-yl]benzamide] | – | 84 | 29 | – | 9030 | – | 60 | – | –

Further lines, with some results ahead:

Emax [1, 3] [%] | EC50 ([1]; read-out: LXR beta IP) [nM] | Emax [2, 3] [%] | LXR alpha IP (nM) [2] | EC50 ([2]; read-out: LXR alpha IP) [nM] | Compound | EC50 ([1]; LXR beta IP (nM)) [nM] | Emax [1] [%] | EC50 ([2]; LXR alpha IP (nM)) [nM] | Emax [2] [%]
71 | 24 | 6 | NO IP | – | CCOc1cccc([C@@](O)(C(=O)N2CCC(CC3CCN(c4ccc(C(=O)N(C)C)c(C5CC5)n4)CC3)CC2)C(F)(F)F)c1 [Example 7-12, 2-cyclopropyl-6-[4-({1-[(2R)-2-(3-ethoxyphenyl)-3,3,3-trifluoro-2-hydroxypropanoyl]piperidin-4-yl}methyl)piperidin-1-yl]-N,N-dimethylpyridine-3-carboxamide] | – | – | – | –
153 | 7 | 60 | – | 148 | CN(C)C(=O)c1ccc(N2CCC(CC3CCN(C(=O)[C@](O)(c4ccccc4)C(F)(F)C(F)(F)F)CC3)CC2)nc1Cl [Example 7-60, 2-chloro-N,N-dimethyl-6-[4-({1-[(2R)-3,3,4,4,4-pentafluoro-2-hydroxy-2-phenylbutanoyl]piperidin-4-yl}methyl)piperidin-1-yl]pyridine-3-carboxamide] | – | – | – | –
58 | 8 | 14 | NO IP | – | CC(C)Oc1cccc([C@@](O)(C(=O)N2CCC(CC3CCN(c4ccc(C(=O)N(C)C)c(Cl)n4)CC3)CC2)C(F)(F)F)c1 [Example 7-91, 2-chloro-N,N-dimethyl-6-{4-[(1-{(2R)-3,3,3-trifluoro-2-hydroxy-2-[3-(1-methylethoxy)phenyl]propanoyl}piperidin-4-yl)methyl]piperidin-1-yl}pyridine-3-carboxamide] | – | – | – | –
